Laboratory results taken from patent publication US8192962B2, “Processes for detecting toxic substances” (Daikin Industries, Ltd., priority 2001, dated 2012).

Test system: Unknown protein yeast genes
Test: DNA chip mRNA expression in yeast, unknown protein yeast genes (Table 1)
Assay type: cell-based, Saccharomyces cerevisiae S288C
In short: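 Chemical exposure: 2 h, log-phase S. cerevisiae S288C, YPD, 25° C., dose set to inhibit growth without death. Profiling: mRNA labeled by reverse transcription with Cy3- or Cy5-dUTP, hybridized to whole-genome array. Output: fluorescence ratio against untreated culture.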

[Cl][Hg][Cl] [(3), HgCl2]
The level of expressed mRNA in the presence of chemical substance/The level of expressed mRNA in the absence of chemical substance (yeast gene YAL053W, incubated two hours with chemical substance): 1.3
The level of expressed mRNA in the presence of chemical substance/The level of expressed mRNA in the absence of chemical substance (yeast gene YBL048W): 2.3
The level of expressed mRNA in the presence of chemical substance/The level of expressed mRNA in the absence of chemical substance (yeast gene YBL107C): 0.4
The level of expressed mRNA in the presence of chemical substance/The level of expressed mRNA in the absence of chemical substance (yeast gene YDL072C, incubated two hours with chemical substance): 3.5
The level of expressed mRNA in the presence of chemical substance/The level of expressed mRNA in the absence of chemical substance (yeast gene YDL204W, incubated two hours with chemical substance): 4.8
The level of expressed mRNA in the presence of chemical substance/The level of expressed mRNA in the absence of chemical substance (yeast gene YDL222C, incubated two hours with chemical substance): 1.5
The level of expressed mRNA in the presence of chemical substance/The level of expressed mRNA in the absence of chemical substance (yeast gene YDR330W, incubated two hours with chemical substance): 1.2
The level of expressed mRNA in the presence of chemical substance/The level of expressed mRNA in the absence of chemical substance (yeast gene YDR411C, incubated two hours with chemical substance): 1.8
The level of expressed mRNA in the presence of chemical substance/The level of expressed mRNA in the absence of chemical substance (yeast gene YDR511W, incubated two hours with chemical substance): 0.9
The level of expressed mRNA in the presence of chemical substance/The level of expressed mRNA in the absence of chemical substance (yeast gene YDR545W, incubated two hours with chemical substance): 0.6
The level of expressed mRNA in the presence of chemical substance/The level of expressed mRNA in the absence of chemical substance (yeast gene YEL001C, incubated two hours with chemical substance): 1.4
The level of expressed mRNA in the presence of chemical substance/The level of expressed mRNA in the absence of chemical substance (yeast gene YER004W, incubated two hours with chemical substance): 1.9
The level of expressed mRNA in the presence of chemical substance/The level of expressed mRNA in the absence of chemical substance (yeast gene YER035W, incubated two hours with chemical substance): 1.6
The level of expressed mRNA in the presence of chemical substance/The level of expressed mRNA in the absence of chemical substance (yeast gene YER079W, incubated two hours with chemical substance): 1.9
The level of expressed mRNA in the presence of chemical substance/The level of expressed mRNA in the absence of chemical substance (yeast gene YER106W, incubated two hours with chemical substance): 1.3
The level of expressed mRNA in the presence of chemical substance/The level of expressed mRNA in the absence of chemical substance (yeast gene YER158C, incubated two hours with chemical substance): 0.9
The level of expressed mRNA in the presence of chemical substance/The level of expressed mRNA in the absence of chemical substance (yeast gene YER163C, incubated two hours with chemical substance): 1.2
The level of expressed mRNA in the presence of chemical substance/The level of expressed mRNA in the absence of chemical substance (yeast gene YER175C, incubated two hours with chemical substance): 1.3
The level of expressed mRNA in the presence of chemical substance/The level of expressed mRNA in the absence of chemical substance (yeast gene YFL006W, incubated two hours with chemical substance): 1.6
The level of expressed mRNA in the presence of chemical substance/The level of expressed mRNA in the absence of chemical substance (yeast gene YFL010C, incubated two hours with chemical substance): 1.3
The level of expressed mRNA in the presence of chemical substance/The level of expressed mRNA in the absence of chemical substance (yeast gene YFL024C): 1.1
The level of expressed mRNA in the presence of chemical substance/The level of expressed mRNA in the absence of chemical substance (yeast gene YFL032W, incubated two hours with chemical substance): 1.6
The level of expressed mRNA in the presence of chemical substance/The level of expressed mRNA in the absence of chemical substance (yeast gene YGL037C, incubated two hours with chemical substance): 6.5
The level of expressed mRNA in the presence of chemical substance/The level of expressed mRNA in the absence of chemical substance (yeast gene YGL047W, incubated two hours with chemical substance): 1.6
The level of expressed mRNA in the presence of chemical substance/The level of expressed mRNA in the absence of chemical substance (yeast gene YGL053W, incubated two hours with chemical substance): 1.2
The level of expressed mRNA in the presence of chemical substance/The level of expressed mRNA in the absence of chemical substance (yeast gene YGL121C): 1.4
The level of expressed mRNA in the presence of chemical substance/The level of expressed mRNA in the absence of chemical substance (yeast gene YGL199C, incubated two hours with chemical substance): 1.7
The level of expressed mRNA in the presence of chemical substance/The level of expressed mRNA in the absence of chemical substance (yeast gene YGR101W, incubated two hours with chemical substance): 1.2
The level of expressed mRNA in the presence of chemical substance/The level of expressed mRNA in the absence of chemical substance (yeast gene YGR110W): 2.2
The level of expressed mRNA in the presence of chemical substance/The level of expressed mRNA in the absence of chemical substance (yeast gene YGR130C, incubated two hours with chemical substance): 0.6
The level of expressed mRNA in the presence of chemical substance/The level of expressed mRNA in the absence of chemical substance (yeast gene YGR154C, incubated two hours with chemical substance): 2.2
The level of expressed mRNA in the presence of chemical substance/The level of expressed mRNA in the absence of chemical substance (yeast gene YGR221C, incubated two hours with chemical substance): 0.9
The level of expressed mRNA in the presence of chemical substance/The level of expressed mRNA in the absence of chemical substance (yeast gene YHR138C, incubated two hours with chemical substance): 2.2
The level of expressed mRNA in the presence of chemical substance/The level of expressed mRNA in the absence of chemical substance (yeast gene YHR199C, incubated two hours with chemical substance): 3.2
The level of expressed mRNA in the presence of chemical substance/The level of expressed mRNA in the absence of chemical substance (yeast gene YIL023C, incubated two hours with chemical substance): 2.1
The level of expressed mRNA in the presence of chemical substance/The level of expressed mRNA in the absence of chemical substance (yeast gene YIL041W, incubated two hours with chemical substance): 2.1
The level of expressed mRNA in the presence of chemical substance/The level of expressed mRNA in the absence of chemical substance (yeast gene YIL087C, incubated two hours with chemical substance): 3.4
The level of expressed mRNA in the presence of chemical substance/The level of expressed mRNA in the absence of chemical substance (yeast gene YJL057C, incubated two hours with chemical substance): 1.6
The level of expressed mRNA in the presence of chemical substance/The level of expressed mRNA in the absence of chemical substance (yeast gene YJL066C, incubated two hours with chemical substance): 1.2
The level of expressed mRNA in the presence of chemical substance/The level of expressed mRNA in the absence of chemical substance (yeast gene YJL082W, incubated two hours with chemical substance): 2.4
The level of expressed mRNA in the presence of chemical substance/The level of expressed mRNA in the absence of chemical substance (yeast gene YJL151C, incubated two hours with chemical substance): 3.2
The level of expressed mRNA in the presence of chemical substance/The level of expressed mRNA in the absence of chemical substance (yeast gene YJL152W, incubated two hours with chemical substance): 1.8
The level of expressed mRNA in the presence of chemical substance/The level of expressed mRNA in the absence of chemical substance (yeast gene YJL161W, incubated two hours with chemical substance): 1.5
The level of expressed mRNA in the presence of chemical substance/The level of expressed mRNA in the absence of chemical substance (yeast gene YJL171C, incubated two hours with chemical substance): 2.8
The level of expressed mRNA in the presence of chemical substance/The level of expressed mRNA in the absence of chemical substance (yeast gene YJR008W, incubated two hours with chemical substance): 1.2
The level of expressed mRNA in the presence of chemical substance/The level of expressed mRNA in the absence of chemical substance (yeast gene YJR054W, incubated two hours with chemical substance): 0.3
The level of expressed mRNA in the presence of chemical substance/The level of expressed mRNA in the absence of chemical substance (yeast gene YKL071W): 5.4
The level of expressed mRNA in the presence of chemical substance/The level of expressed mRNA in the absence of chemical substance (yeast gene YKL086W, incubated two hours with chemical substance): 2.4
The level of expressed mRNA in the presence of chemical substance/The level of expressed mRNA in the absence of chemical substance (yeast gene YKL151C, incubated two hours with chemical substance): 1.7
The level of expressed mRNA in the presence of chemical substance/The level of expressed mRNA in the absence of chemical substance (yeast gene YKL153W, incubated two hours with chemical substance): 2.0
